Assay results as given in patent publication EP2966448B1, “METHOD FOR THE PREDICTION OR PROGNOSIS OF THE RESPONSE OF A HUMAN SUBJECT SUFFERING FROM CANCER TO TREATMENT WITH AN ANTAGONIST OF THE NK1 RECEPTOR” (priority 2013, dated 2014).
Like-named read-outs stand apart in the source and are kept apart here.

Legend:
Gastric carcinoma = experiment: Inhibition of primary tumor cell cultures (48 hours) vs NK1 receptor immunostaining (Example 1); assay type: cell-based; conditions: Homo sapiens, 1 micromolar, read-out: Percentage of inhibition of cell cultures
Description: (§1) Cell cultures. To obtain tumor cells from human primary tumors we used the method described in De Bari et al. (De Bari et al. 2001). Briefly, small pieces of the tumors were digested into a hyaluronidase solution (Sigma-Aldrich, USA) at a concentration of 1 mg/ml during 15 minutes at 37°C, and then they were treated with 6 mg/ml of collagenase type IV (Invitrogen) during 2 hours at 37°C. Consecutively, cells were washed, and resuspended in the DMEM culture medium with high concentration of glucose (Dulbecco's Modified Eagle's Medium, Invitrogen) supplemented with 1% of antibiotics-antimycotics (Invitrogen) and with 1% of sodium pyruvate (Invitrogen), and the cells were seeded in culture slides at a concentration of 10.000 cells per square centimeter. When cells reached confluence, the adherent cells were separated using sterile trypsin at 0,5% (Invitrogen) and they were used among passages 3 and 9. For the assays shown next, tumor cells were seeded on slides at a concentration of 25.000 cells per well. A total of 6 wells containing the tumor cells were used as survival control. […] All the cultures were kept during 48 hours and later on recollected for their analysis.
(§2) Immunohistochemistry techniques. The presence of NK1 receptors was also analyzed using immunohistochemistry techniques. Briefly, a sample of each of the cultures of the cell lines used in the present invention, was centrifuged (5 minutes at 1.500 rpm) and the pellet obtained was dehydrated using increasing concentrations of ethanol and, finally, xylol. Then, said dehydrated samples were embedded in paraffin, creating a block of cells. Such paraffin blocks were cut with a microtome at 5 microns thickness, and were placed on microscope slides adequate to perform immunohistochemistry techniques. Consecutively, they were de-paraffinized by immersing them in xylol, to be finally hydrated using a solution containing decreasing concentrations of ethanol, and finally submerged them into water. […] After this, the samples were left to cool down at room temperature for 10 minutes. The endogenous peroxidase activity was blocked with 3% peroxide of hydrogen for 30 minutes at room temperature. After washing the samples with 0.05 M of Tris buffer, they were incubated with 10% non-immune pork serum at for 30 minutes at room temperature. To analyze the expression of NK1 receptors, the cellular samples were incubated in the presence of anti-NK1 antibodies (S8305, Sigma-Aldrich) diluted 1:1000, overnight at 4°C. Afterwards, the samples were washed in Tris buffer 0.05 M at room temperature. The next step was the addition of Envision System-HRP (Dako) reagents for 30 minutes at room temperature. Then, the samples were washed again in Tris buffer 0.05 M and the immunoreactivity was visualized through light microscopy with a chromogenic solution containing 3,3'-Diaminobenzidine (DAB+; Dako, USA). To differentiate the cell nuclei, they were slightly stained with hematoxylin. As negative control, it was used samples not incubated with the primary antibody anti-NK1, which was replaced by non-immune serum. All the samples were evaluated.
(§3) To value the immunostaining in each of the cases six cuts were performed to be analyzed by the immunohistochemistry technique. In each of the six cuts, it was counted cells in 20 fields (magnification 400x) using an Olympus microscope (model CX31). In each field it was counted the total number of cells and the number of cells presenting immunostaining, calculating afterwards the percentage of cells which presented immunostaining.

Pancreatic carcinoma = experiment: as above; assay type: cell-based; conditions: Homo sapiens, 1 micromolar, read-out: Percentage of inhibition of cell cultures
Description: as §1, §2, §3

Renal cell carcinoma = experiment: as above; assay type: cell-based; conditions: Homo sapiens, 1 micromolar, read-out: Percentage of inhibition of cell cultures
Description: as §1, §2, §3

Breast carcinoma = experiment: as above; assay type: cell-based; conditions: Homo sapiens, 1 micromolar, read-out: Percentage of inhibition of cell cultures
Description: as §1, §2, §3

[1] = test system: Carcinoma of the uterine cervix; experiment: as above; assay type: cell-based; conditions: Homo sapiens, 1 micromolar, read-out: Percentage of inhibition of cell cultures
Description: as §1, §2, §3

[2] = test system: Lung carcinoma (non small cell type); experiment: as above; assay type: cell-based; conditions: Homo sapiens, 1 micromolar, read-out: Percentage of inhibition of cell cultures
Description: as §1, §2, §3

[3] = test system: Thyroid carcinoma (folliculary type); experiment: as above; assay type: cell-based; conditions: Homo sapiens, 1 micromolar, read-out: Percentage of inhibition of cell cultures
Description: as §1, §2, §3

[4] = test system: Thyroid carcinoma (papillary type); experiment: as above; assay type: cell-based; conditions: Homo sapiens, 1 micromolar, read-out: Percentage of inhibition of cell cultures
Description: as §1, §2, §3

Glioma = experiment: as above; assay type: cell-based; conditions: Homo sapiens, 1 micromolar, read-out: Percentage of inhibition of cell cultures
Description: as §1, §2, §3

Fibrosarcoma = experiment: as above; assay type: cell-based; conditions: Homo sapiens, 1 micromolar, read-out: Percentage of inhibition of cell cultures
Description: as §1, §2, §3

[5] = test system: Malignant Fibrous Histiocytoma; experiment: as above; assay type: cell-based; conditions: Homo sapiens, 1 micromolar, read-out: Percentage of inhibition of cell cultures
Description: as §1, §2, §3

Ewing Sarcoma = experiment: as above; assay type: cell-based; conditions: Homo sapiens, 1 micromolar, read-out: Percentage of inhibition of cell cultures
Description: as §1, §2, §3

Neuroblastoma = experiment: as above; assay type: cell-based; conditions: Homo sapiens, 1 micromolar, read-out: Percentage of inhibition of cell cultures
Description: as §1, §2, §3

Leukemia B = experiment: as above; assay type: cell-based; conditions: Homo sapiens, 1 micromolar, read-out: Percentage of inhibition of cell cultures
Description: as §1, §2, §3

Leukemia T = experiment: as above; assay type: cell-based; conditions: Homo sapiens, 1 micromolar, read-out: Percentage of inhibition of cell cultures
Description: as §1, §2, §3

Non Hodgkin Lymphoma B = experiment: as above; assay type: cell-based; conditions: Homo sapiens, 1 micromolar, read-out: Percentage of inhibition of cell cultures
Description: as §1, §2, §3

[6] = test system: Gastric carcinoma (Adenocarcinoma); experiment: Inhibition of primary tumor cell cultures vs Kras mutation (Example 2); assay type: cell-based, human; conditions: Gastric carcinoma (Adenocarcinoma), 100 micromolar
Description: (§4) Cell cultures. […] Briefly, small pieces of the tumors were digested into a hyaluronidase solution (Sigma-Aldrich, USA) at a concentration of 1 mg/ml during 15 minutes at 37°C, and then they were treated with 6 mg/ml of collagenase type IV (Invitrogen) during 2 hours at 37°C. Consecutively, cells were washed, and resuspended in the DMEM culture medium with high concentration of glucose (Dulbecco's Modified Eagle's Medium, Invitrogen) supplemented with 1% of antibiotics-antimycotics (Invitrogen) and with 1% of sodium pyruvate (Invitrogen), and the cells were seeded in culture slides at a concentration of 10.000 cells per square centimeter. When cells reached confluence, the adherent cells were separated using sterile trypsin at 0,5% (Invitrogen) and they were used among passages 3 and 9. For the assays shown next, tumor cells were seeded on slides at a concentration of 25.000 cells per well. A total of 6 wells containing the tumor cells were used as survival control. […] All the cultures were kept during 48 hours and later on recollected for their analysis.
(§5) In each case the presence or not of mutations in K-ras gene was determined.
(§6) To determine the existence of mutations in the K-ras gene DNA from cancer tumor cells was extracted from samples obtained from the different cancer tumor cells, using DNA extraction kits from Takara (Madison, WI, US) or Ambion (Huntingdon, Cambridgeshire, United Kingdom), following the manufacturer's instructions, and as it has been previously published (Di Fiore F, et al. 2007). Consecutively it was analyzed by sequencing the exon 2 of the KRAS gene, , by means of PCR amplification from previously extracted cancer tumor DNA, using the following sense primer (SEQ ID NO. 15): 5'-[sequence]-3' and anti-sense primer (SEQ ID NO. 16): 5'-[sequence]-3'. After the purification using the Qiagen extraction kit, the PCR products were sequenced using the Big Dye Terminator Kit V3.1 (Applied Biosystems, Foster City, CA, U.S.) and an ABI Prism 377 or 3100 DNA sequencer (Applied Biosystems). The presence of a heterozygous mutation in the KRAS gene in cancer tumor cells of the cultures was defined as the appearance of a mutant peak of a height of at least a third of the wild type. All the sequence analysis were executed at least twice in two independent PCR.
(§7) The antibody against NK1 receptor (Table 16) was used at 1/50 concentration. The percentages of inhibition are expressed in percentage of variation in relation to control ± standard deviation.

[7] = test system: Pancreatic carcinoma (Adenocarcinoma); experiment: as above; assay type: cell-based, human; conditions: Pancreatic carcinoma (Adenocarcinoma), 100 micromolar
Description: as §4, §5, §6, §7

[8] = test system: Thyroid carcinoma (papillary carcinoma); experiment: as above; assay type: cell-based, human; conditions: Thyroid carcinoma (papillary carcinoma), 100 micromolar
Description: To obtain tumor cells from human primary tumors we used the method described in De Bari et al. (De Bari et al. 2001). Briefly, small pieces of the tumors were digested into a hyaluronidase solution (Sigma-Aldrich, USA) at a concentration of 1 mg/ml during 15 minutes at 37°C, and then they were treated with 6 mg/ml of collagenase type IV (Invitrogen) during 2 hours at 37°C. Consecutively, cells were washed, and resuspended in the DMEM culture medium with high concentration of glucose (Dulbecco's Modified Eagle's Medium, Invitrogen) supplemented with 1% of antibiotics-antimycotics (Invitrogen) and with 1% of sodium pyruvate (Invitrogen), and the cells were seeded in culture slides at a concentration of 10.000 cells per square centimeter. When cells reached confluence, the adherent cells were separated using sterile trypsin at 0,5% (Invitrogen) and they were used among passages 3 and 9. For the assays shown next, tumor cells were seeded on slides at a concentration of 25.000 cells per well. A total of 6 wells containing the tumor cells were used as survival control. […] All the cultures were kept during 48 hours and later on recollected for their analysis.
as §5, §6, §7

[9] = test system: Undifferentiated Pleomorphic Sarcoma (malignant fibrous histiocytoma grade 3); experiment: as above; assay type: cell-based, human; conditions: Undifferentiated Pleomorphic Sarcoma (malignant fibrous histiocytoma grade 3), 100 micromolar
Description: as §1, §5, §6
(§8) The percentages of inhibition are expressed in percentage of variation in relation to control ± standard deviation.

[10] = test system: Melanoma (Nodular Melanoma); experiment: as above; assay type: cell-based, human; conditions: Melanoma (Nodular Melanoma), 100 micromolar
Description: as §1, §5, §6, §8

[11] = test system: Non Hodgkin Lymphoma B (diffuse B cell lymphoma); experiment: as above; assay type: cell-based, human; conditions: Non Hodgkin Lymphoma B (diffuse B cell lymphoma), 100 micromolar
Description: as §1, §5, §6, §8

Burkitt Lymphoma = experiment: as above; assay type: cell-based, human; conditions: Burkitt Lymphoma, 100 micromolar
Description: as §1, §5, §6, §7

[12] = test system: human primary tumor cells; experiment: Inhibition of primary tumor cell cultures vs absence or presence of AKT protein (Example 4; tumor type per table line); assay type: cell-based; conditions: cancer cell cultures showing more presence of AKT, compared; non-peptidic antagonists 100 micromolar, antibody 1/50
Description: as §4
Afterwards, the cells were cultured in presence of several antagonists of the NK1 receptor.
In each case it was determined the presence or absence of the AKT protein effector downstream in the PI3 Kinases pathway.
To determine the presence of the AKT protein in the different cultures Western Blot technique was performed (following the description in example 1-Western Blot section), but using as primary antibody with reference: Akt (pan) (11E7) Rabbit mAb (4685, Cell Signalling).
The antibody against NK1 receptor (Table 26) was used at 1/50 concentration. The percentages of inhibition are expressed in percentage of variation in relation to control ± standard deviation.

Endometrium carcinoma = experiment: cells; conditions: Homo sapiens, 1 micromolar
Description: as §1, §2, §3

[13] = NK1 receptor immunostaining Group 1 (less than 20% of the cells)
[14] = NK1 receptor immunostaining Group 2 (20-80% of the cells)
[15] = NK1 receptor immunostaining Group 3 (more than 80% of the cells)
[16] = NK1 receptor immunostaining Intensity grade 1
[17] = NK1 receptor immunostaining Intensity grade 2
[18] = NK1 receptor immunostaining Intensity grade 3
[19] = Cases with Kras non-mutated (wild type)

Cc1cc(F)ccc1[C@H]1CNCCN1C(=O)N(C)[C@H](C)c1cc(C(F)(F)F)cc(C(F)(F)F)c1 [Vestipitant]
inhibition at 1 µM (Gastric carcinoma; [13]): 11 ± 3% | inhibition at 1 µM (Gastric carcinoma; [14]): 48 ± 3% | inhibition at 1 µM (Gastric carcinoma; [15]): 92 ± 3% | inhibition at 1 µM (Gastric carcinoma; [16]): 19 ± 4% | inhibition at 1 µM (Gastric carcinoma; [17]): 49 ± 4% | inhibition at 1 µM (Gastric carcinoma; [18]): 92 ± 4% | inhibition at 1 µM (Pancreatic carcinoma; [13]): 11 ± 3% | inhibition at 1 µM (Pancreatic carcinoma; [14]): 45 ± 2% | inhibition at 1 µM (Pancreatic carcinoma; [15]): 91 ± 3% | inhibition at 1 µM (Pancreatic carcinoma; [16]): 21 ± 4% | inhibition at 1 µM (Pancreatic carcinoma; [17]): 47 ± 5% | inhibition at 1 µM (Pancreatic carcinoma; [18]): 91 ± 5% | inhibition at 1 µM (Renal cell carcinoma; [13]): 10 ± 4% | inhibition at 1 µM (Renal cell carcinoma; [14]): 45 ± 3% | inhibition at 1 µM (Renal cell carcinoma; [15]): 93 ± 6% | inhibition at 1 µM (Renal cell carcinoma; [16]): 21 ± 3% | inhibition at 1 µM (Renal cell carcinoma; [17]): 46 ± 4% | inhibition at 1 µM (Renal cell carcinoma; [18]): 93 ± 4% | inhibition at 1 µM (Breast carcinoma; [13]): 12 ± 3% | inhibition at 1 µM (Breast carcinoma; [14]): 46 ± 3% | inhibition at 1 µM (Breast carcinoma; [15]): 93 ± 4% | inhibition at 1 µM (Breast carcinoma; [16]): 19 ± 4% | inhibition at 1 µM (Breast carcinoma; [17]): 45 ± 3% | inhibition at 1 µM (Breast carcinoma; [18]): 93 ± 3% | inhibition at 1 µM [1, 13]: 17 ± 4% | inhibition at 1 µM [1, 14]: 46 ± 3% | inhibition at 1 µM [1, 15]: 94 ± 4% | inhibition at 1 µM [1, 16]: 19 ± 3% | inhibition at 1 µM [1, 17]: 48 ± 3% | inhibition at 1 µM [1, 18]: 94 ± 3% | inhibition at 1 µM [2, 13]: 15 ± 2% | inhibition at 1 µM [2, 14]: 45 ± 2% | inhibition at 1 µM [2, 15]: 93 ± 4% | inhibition at 1 µM [2, 16]: 17 ± 2% | inhibition at 1 µM [2, 17]: 49 ± 5% | inhibition at 1 µM [2, 18]: 93 ± 5% | inhibition at 1 µM [3, 13]: 16 ± 3% | inhibition at 1 µM [3, 14]: 45 ± 3% | inhibition at 1 µM [3, 15]: 95 ± 5% | inhibition at 1 µM [3, 16]: 19 ± 4% | inhibition at 1 µM [3, 17]: 46 ± 4% | inhibition at 1 µM [3, 18]: 95 ± 3% | inhibition at 1 µM [4, 13]: 15 ± 3% | inhibition at 1 µM [4, 14]: 47 ± 5% | inhibition at 1 µM [4, 15]: 96 ± 4% | inhibition at 1 µM [4, 16]: 16 ± 2% | inhibition at 1 µM [4, 17]: 47 ± 5% | inhibition at 1 µM [4, 18]: 96 ± 5% | inhibition at 1 µM (Glioma; [13]): 15 ± 4% | inhibition at 1 µM (Glioma; [14]): 45 ± 4% | inhibition at 1 µM (Glioma; [15]): 92 ± 4% | inhibition at 1 µM (Glioma; [16]): 19 ± 3% | inhibition at 1 µM (Glioma; [17]): 48 ± 5% | inhibition at 1 µM (Glioma; [18]): 92 ± 3% | inhibition at 1 µM (Fibrosarcoma; [13]): 16 ± 3% | inhibition at 1 µM (Fibrosarcoma; [14]): 45 ± 3% | inhibition at 1 µM (Fibrosarcoma; [15]): 91 ± 3% | inhibition at 1 µM (Fibrosarcoma; [16]): 18 ± 2% | inhibition at 1 µM (Fibrosarcoma; [17]): 47 ± 3% | inhibition at 1 µM (Fibrosarcoma; [18]): 91 ± 2% | inhibition at 1 µM [5, 13]: 15 ± 4% | inhibition at 1 µM [5, 14]: 46 ± 4% | inhibition at 1 µM [5, 15]: 91 ± 5% | inhibition at 1 µM [5, 16]: 17 ± 3% | inhibition at 1 µM [5, 17]: 48 ± 4% | inhibition at 1 µM [5, 18]: 91 ± 5% | inhibition at 1 µM (Ewing Sarcoma; [13]): 16 ± 3% | inhibition at 1 µM (Ewing Sarcoma; [14]): 46 ± 4% | inhibition at 1 µM (Ewing Sarcoma; [15]): 90 ± 6% | inhibition at 1 µM (Ewing Sarcoma; [16]): 16 ± 4% | inhibition at 1 µM (Ewing Sarcoma; [17]): 47 ± 3% | inhibition at 1 µM (Ewing Sarcoma; [18]): 90 ± 6% | inhibition at 1 µM (Neuroblastoma; [13]): 17 ± 2% | inhibition at 1 µM (Neuroblastoma; [14]): 46 ± 3% | inhibition at 1 µM (Neuroblastoma; [15]): 93 ± 3% | inhibition at 1 µM (Neuroblastoma; [16]): 16 ± 1% | inhibition at 1 µM (Neuroblastoma; [17]): 49 ± 5% | inhibition at 1 µM (Neuroblastoma; [18]): 93 ± 4% | inhibition at 1 µM (Leukemia B; [13]): 16 ± 5% | inhibition at 1 µM (Leukemia B; [14]): 47 ± 5% | inhibition at 1 µM (Leukemia B; [15]): 92 ± 5% | inhibition at 1 µM (Leukemia B; [16]): 17 ± 2% | inhibition at 1 µM (Leukemia B; [17]): 47 ± 3% | inhibition at 1 µM (Leukemia B; [18]): 92 ± 4% | inhibition at 1 µM (Leukemia T; [13]): 17 ± 4% | inhibition at 1 µM (Leukemia T; [14]): 46 ± 3% | inhibition at 1 µM (Leukemia T; [15]): 94 ± 4% | inhibition at 1 µM (Leukemia T; [16]): 15 ± 3% | inhibition at 1 µM (Leukemia T; [17]): 48 ± 4% | inhibition at 1 µM (Leukemia T; [18]): 94 ± 5% | inhibition at 1 µM (Non Hodgkin Lymphoma B; [13]): 14 ± 3% | inhibition at 1 µM (Non Hodgkin Lymphoma B; [14]): 45 ± 5% | inhibition at 1 µM (Non Hodgkin Lymphoma B; [15]): 93 ± 5% | inhibition at 1 µM (Non Hodgkin Lymphoma B; [16]): 16 ± 4% | inhibition at 1 µM (Non Hodgkin Lymphoma B; [17]): 47 ± 5% | inhibition at 1 µM (Non Hodgkin Lymphoma B; [18]): 93 ± 4% | Percentage of inhibition of cell cultures ([6]; Cases with Kras mutated): 24±4 percentage | Percentage of inhibition of cell cultures [6, 19]: 96±4 percentage | Percentage of inhibition of cell cultures ([7]; Cases with Kras mutated): 24±4 percentage | Percentage of inhibition of cell cultures [7, 19]: 97±4 percentage | Percentage of inhibition of cell cultures ([8]; Cases with Kras mutated): 26±4 percentage | Percentage of inhibition of cell cultures [8, 19]: 94±5 percentage | Percentage of inhibition of cell cultures ([9]; Cases with Kras mutated): 26±4 percentage | Percentage of inhibition of cell cultures [9, 19]: 95±6 percentage | Percentage of inhibition of cell cultures ([10]; Cases with Kras mutated): 23±5 percentage | Percentage of inhibition of cell cultures [10, 19]: 96±5 percentage | Percentage of inhibition of cell cultures ([11]; Cases with Kras mutated): 24±4 percentage | Percentage of inhibition of cell cultures [11, 19]: 97±6 percentage | Percentage of inhibition of cell cultures (Burkitt Lymphoma; Cases with Kras mutated): 24±3 percentage | Percentage of inhibition of cell cultures (Burkitt Lymphoma; [19]): 95±3 percentage | inhibition of cell proliferation [12]: higher inhibition | inhibition at 1 µM (Endometrium carcinoma; read-out: Percentage of inhibition of cell cultures, NK1 receptor immunostaining Group 1 (less than 20% of the cells)): 15 ± 3% | inhibition at 1 µM (Endometrium carcinoma; read-out: Percentage of inhibition of cell cultures, NK1 receptor immunostaining Group 2 (20-80% of the cells)): 44 ± 3% | inhibition at 1 µM (Endometrium carcinoma; read-out: Percentage of inhibition of cell cultures, NK1 receptor immunostaining Group 3 (more than 80% of the cells)): 93 ± 6% | inhibition at 1 µM (Endometrium carcinoma; read-out: Percentage of inhibition of cell cultures, NK1 receptor immunostaining Intensity grade 1): 18 ± 2% | inhibition at 1 µM (Endometrium carcinoma; read-out: Percentage of inhibition of cell cultures, NK1 receptor immunostaining Intensity grade 2): 47 ± 4% | inhibition at 1 µM (Endometrium carcinoma; read-out: Percentage of inhibition of cell cultures, NK1 receptor immunostaining Intensity grade 3): 93 ± 5%
